The record followed here is patent publication US20230114728A1 (Venatorx Pharmaceuticals, Inc., priority 2019, published 2023).

≈ marks a conversion by molar mass, not a printed value.

The target in test [1] is T1, E. coli K12 PBP3 (Escherichia coli, UniProt P0AD68).
T1 construct: made in house
Description: biochemical. Type of test: binding. The procedure, abridged:
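A. baumannii PBP2 (2.5 μM) and PBP3 (0.2 μM) were run in 25 mM Tris pH 8.0 buffer with Tween 20; E. coli PBP3 (1.5 μM) and N. gonorrhoeae PBP2 ([…]) in 50 mM Hepes pH 8.0 buffer.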

Test [2] deals with T2, P. aeruginosa PBP3 (Pseudomonas aeruginosa, UniProt G3XD46).
T2 construct: made in house
T2 sequence (G3XD46 whole entry): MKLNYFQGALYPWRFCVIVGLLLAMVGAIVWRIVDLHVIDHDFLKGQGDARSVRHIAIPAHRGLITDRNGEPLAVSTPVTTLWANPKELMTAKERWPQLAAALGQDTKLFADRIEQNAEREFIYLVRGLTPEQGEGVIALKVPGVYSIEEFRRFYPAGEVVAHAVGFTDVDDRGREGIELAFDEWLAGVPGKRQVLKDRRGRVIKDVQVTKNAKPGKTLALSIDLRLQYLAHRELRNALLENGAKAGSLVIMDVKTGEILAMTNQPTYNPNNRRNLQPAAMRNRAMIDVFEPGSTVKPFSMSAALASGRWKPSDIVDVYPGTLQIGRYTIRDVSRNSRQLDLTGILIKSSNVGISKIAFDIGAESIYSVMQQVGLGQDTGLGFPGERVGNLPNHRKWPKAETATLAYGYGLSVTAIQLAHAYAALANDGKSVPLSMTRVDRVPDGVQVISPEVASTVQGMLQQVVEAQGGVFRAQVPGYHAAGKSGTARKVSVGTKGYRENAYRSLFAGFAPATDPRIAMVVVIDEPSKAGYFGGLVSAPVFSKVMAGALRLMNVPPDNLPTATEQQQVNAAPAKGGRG
Description: Bocillin-FL fluorescence polarization competition binding assay, P. aeruginosa PBP3. The conditions noted are these: fluorescence polarization competition binding assay using Bocillin-FL. The essentials:
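Inhibitor competition with Bocillin-FL for P. aeruginosa PBP3 was followed by fluorescence polarization on a Cytation3 (BioTek) reader, using g-factor 0.96, 490 nm excitation and 520 nm emission. The enzyme was at 0.75 μM and the probe at 0.1 μM in Hepes/NaCl/glycerol buffer, 80 μl per well. FP was recorded immediately after probe addition for up to 60 minutes. Potency was expressed as EC50, the concentration that reduces bound probe by 50%.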

In test [3] the test system is A. baumannii ATCC 19606. Put plainly: Broth microdilution MIC in CAMHB. The following applies: Acinetobacter baumannii, ATCC19606; MHB; read-out: Minimum Inhibitory Concentration, A. baumannii ATCC 19606. Type of test: cell-based. The essentials: (§1)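 CLSI microdilution; CAMHB; inoculum 2-8×10^5 CFU/mL from 3-5 h 37° C culture; 2-fold compound series; 16-20 h, 37° C; MIC = lowest well without visible growth.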
In general terms: Dilution methods test growth across graded concentrations, often in twofold steps.

Test [4] has as its system E. coli 901C. Put plainly: Broth microdilution MIC in CAMHB. Type of test: cell-based. The following applies: Escherichia coli; E. coli 901C (hyper-permeable); MHB; read-out: Minimum Inhibitory Concentration, E. coli 901C. The essentials:
as §1

The subject of test [5] is E. coli AG100A. Description: Broth microdilution MIC in CAMHB. Type of test: cell-based. The conditions noted are these: Escherichia coli, read-out: Minimum Inhibitory Concentration, E. coli AG100A. The essentials:
as §1

Test [6] concerns E. coli AG100. Put plainly: Broth microdilution MIC in CAMHB. Type of test: cell-based. The conditions noted are these: Escherichia coli; E. coli AG100 (wild-type parent); MHB; read-out: Minimum Inhibitory Concentration, E. coli AG100. The essentials: as §1
The test system of test [7] is E. coli ATCC 25922. Description: Broth microdilution MIC in CAMHB. Type of test: cell-based. The following applies: Escherichia coli, ATCC25922; E. coli ATCC 25922; MHB; read-out: Minimum Inhibitory Concentration, E. coli 25922. The procedure, abridged: as §1
Test [8] relates to E. coli D22. Put plainly: Broth microdilution MIC in CAMHB. The conditions noted are these: Escherichia coli; E. coli D22 (hyper-permeable); MHB; read-out: Minimum Inhibitory Concentration, E. coli D22. Type of test: cell-based. The procedure, abridged:
as §1

For test [9], the system named is K. pneumoniae 848844 producing SHV-11 and KPC-2. Put plainly: Broth microdilution MIC in CAMHB. Type of test: cell-based. The following applies: Klebsiella pneumoniae, read-out: Minimum Inhibitory Concentration, K. pneumoniae 848844. The essentials: as §1
Test [10] relates to K. pneumoniae SI-117 producing VIM-1. Put plainly: Broth microdilution MIC in CAMHB. Type of test: cell-based. The conditions noted are these: Klebsiella pneumoniae, read-out: Minimum Inhibitory Concentration, K. pneumoniae SI-117. The procedure, abridged: as §1
The test system of test [11] is K. pneumoniae UMM producing SHV-5 and KPC-2. Put plainly: Broth microdilution MIC in CAMHB. The following applies: Klebsiella pneumoniae, read-out: Minimum Inhibitory Concentration, K. pneumoniae UMM. Type of test: cell-based. The essentials: as §1
The subject of test [12] is P. aeruginosa (ΔmexAB-oprM). Description: Broth microdilution MIC in CAMHB. Type of test: cell-based. The following applies: Pseudomonas aeruginosa, read-out: Minimum Inhibitory Concentration, P. aeruginosa ΔmexAB-OprM. The essentials:
as §1

Test [13] deals with P. aeruginosa ATCC 35151. Put plainly: Broth microdilution MIC in CAMHB. Type of test: cell-based. The following applies: Pseudomonas aeruginosa, ATCC35151; MHB; hyper-permeable strain; read-out: Minimum Inhibitory Concentration, P. aeruginosa ATCC 35151. The procedure, abridged: as §1
For test [14], the system named is P. aeruginosa PAO1. Description: Broth microdilution MIC in CAMHB. Type of test: cell-based. The conditions noted are these: Pseudomonas aeruginosa, MHB, read-out: Minimum Inhibitory Concentration, P. aeruginosa PAO1. The protocol: To determine the ability of test compounds to inhibit the growth of bacterial strains, classic cell based broth microdilution minimum inhibitory concentration (MIC) assays were employed. MIC assays are performed according to CLSI methods except where otherwise noted (CLSI, 2018 and CLSI, 2019). The reference type strain E. coli ATCC 25922; the wild-type parent strain E. coli AG100; the hyper-permeable E. coli 901C and E. coli D22; and the E. coli AG100A strain lacking the acrAB efflux pump encoding genes were used to determine the ability of the PBP inhibitors to penetrate the outer membrane of gram-negative bacteria and inhibit bacterial growth. […] The P. aeruginosa ATCC 27853 and A. baumannii ATCC 19606, along with the hyper-permeable P. aeruginosa ATCC 35151 and an engineered efflux pump-compromised strain of P. aeruginosa (ΔmexAB-oprM) were used to determine the ability of PBP inhibitors to penetrate the outer membrane of P. aeruginosa and A. baumannii and assess antibacterial activity against these important gram-negative organisms.
Briefly, cryo-preserved bacterial cultures of challenge strains are streaked for isolation on appropriate agar medium, in this case cation-adjusted Mueller Hinton agar. Following incubation to allow growth of the colonies, plates are sealed with parafilm and stored refrigerated for up to two weeks. For preparation of assay inoculum and to ensure low variability, at least 5 colonies are picked from the agar plates with an inoculating loop and aseptically transferred to a culture tube containing 3 mL of cation-adjusted Mueller Hinton broth (CAMHB). The broth culture is grown for 3-5 hours at 37° C. with shaking at 200 rpm. Meanwhile, 2-fold serial dilutions of test compounds are conducted in a 96-well plate with a final volume of 75 μL per well at 2-fold the final desired concentration. After the dilution plates are set up the growing cultures are then diluted in a cuvette containing CAMHB and the optical density is measured at 600 nm. The inoculum is diluted such that 75 μL of this culture in CAMHB results in a starting bacterial concentration of 2-8×10^5 CFU/mL when added to the dilution plates. The plates are incubated for 16-20 hours for Enterobacteriaceae and Pseudomonas and 20-24 hours for Acinetobacter at 37° C. The MIC values are read visually as the lowest concentration well with no bacterial growth.

The target in test [15] is T3, E. coli K12 PBP2 (Escherichia coli, UniProt P0AD65).
T3 construct: made in house
T3 sequence (P0AD65 whole entry): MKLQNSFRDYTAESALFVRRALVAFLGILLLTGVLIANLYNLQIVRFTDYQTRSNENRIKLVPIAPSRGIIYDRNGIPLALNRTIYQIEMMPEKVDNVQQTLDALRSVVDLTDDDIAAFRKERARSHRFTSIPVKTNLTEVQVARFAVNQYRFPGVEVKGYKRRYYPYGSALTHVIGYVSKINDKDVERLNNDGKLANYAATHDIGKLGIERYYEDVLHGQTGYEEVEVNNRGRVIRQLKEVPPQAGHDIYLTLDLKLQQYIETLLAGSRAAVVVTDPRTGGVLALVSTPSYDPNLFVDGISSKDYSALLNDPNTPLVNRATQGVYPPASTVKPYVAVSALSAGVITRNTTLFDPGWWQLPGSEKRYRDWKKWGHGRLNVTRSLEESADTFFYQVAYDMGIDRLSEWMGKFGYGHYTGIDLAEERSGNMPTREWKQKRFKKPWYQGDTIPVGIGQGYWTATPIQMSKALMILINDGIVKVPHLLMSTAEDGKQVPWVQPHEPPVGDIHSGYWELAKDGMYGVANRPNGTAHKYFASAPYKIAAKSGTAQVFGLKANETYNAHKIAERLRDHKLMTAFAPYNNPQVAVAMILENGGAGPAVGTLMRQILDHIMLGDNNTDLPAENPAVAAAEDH
Put plainly: Bocillin-FL fluorescence polarization competition binding assay, E. coli PBP2. An excerpt: (§2) Example I: Experimental Method for Penicillin-Binding Protein Binding Assays with Bocillin-FL Via Fluorescence Polarization
To determine the ability of boronic acid-based test PBP inhibitors to bind Penicillin Binding Proteins (PBPs), Bocillin-FL (fluorescently-labeled penicillin V; ThermoFisher Scientific) was used in a fluorescence polarization (FP) competition binding assay to assess inhibitor binding to PBP2, PBP3 or PBP4 from Escherichia coli (K12), PBP3 from Pseudomonas aeruginosa (PA01), PBP1a, PBP2 and PBP3 from Acinetobacter baumannii (ATCC 19606), and PBP2 from Neiserria gonorrheae (FA19). PBPs were cloned and purified as described previously (E. coli PBPs, King, D. T, et al., ACS Infectious Diseases 2015, 1, 175-184; P. aeruginosa PBP3, Han et. al., PNAS 2010, 107 (51), 22002-22007; A. baumannii PBPs, Penwell et. al., Antimicrob. Agents Chemother. 2015, 59 (3), 1680-1689; N. gonorrhoeae PBP2, Singh et. al., J Biol. Chem. 2019, 294 (38), 14020-14032). To establish assay conditions for competition binding, enzyme titration/saturation binding experiments were initially performed. Bocillin-FL was prepared at 0.2 μM in a buffer comprised of 50 mM Hepes (pH 8.0), 300 mM NaCl and 5% (v/v) glycerol for reactions with E. coli, P. aeruginosa and N. gonorrhoeae PBPs, and 25 mM Tris (pH 8.0), 200 mM NaCl and 10% (v/v) glycerol and 0.005% (v/v) Tween 20 for reactions with A. baumannii PBPs. Saturation binding was performed by mixing 40 μl of PBP solutions ranging in concentrations from 0-24 μM with 40 μl of the 0.2 μM Bocillin-FL solution, in individual wells of a black 384-well microplate. FP was measured immediately upon mixing (Excitation, 490 nm; Emission, 520 nm; g-factor, 0.96), using a Cytation3 (BioTek) microplate reader and measured continuously for up to 120 minutes. […] Bocillin-FL was added and the FP immediately measured for up to 60 minutes (90 minutes for E. coli PBP2). […]

Test [16] has as its target T4, A. baumannii PBP2 (Acinetobacter baumannii, UniProt D0C8Z9).
T4 construct: made in house
T4 sequence (D0C8Z9 1-672): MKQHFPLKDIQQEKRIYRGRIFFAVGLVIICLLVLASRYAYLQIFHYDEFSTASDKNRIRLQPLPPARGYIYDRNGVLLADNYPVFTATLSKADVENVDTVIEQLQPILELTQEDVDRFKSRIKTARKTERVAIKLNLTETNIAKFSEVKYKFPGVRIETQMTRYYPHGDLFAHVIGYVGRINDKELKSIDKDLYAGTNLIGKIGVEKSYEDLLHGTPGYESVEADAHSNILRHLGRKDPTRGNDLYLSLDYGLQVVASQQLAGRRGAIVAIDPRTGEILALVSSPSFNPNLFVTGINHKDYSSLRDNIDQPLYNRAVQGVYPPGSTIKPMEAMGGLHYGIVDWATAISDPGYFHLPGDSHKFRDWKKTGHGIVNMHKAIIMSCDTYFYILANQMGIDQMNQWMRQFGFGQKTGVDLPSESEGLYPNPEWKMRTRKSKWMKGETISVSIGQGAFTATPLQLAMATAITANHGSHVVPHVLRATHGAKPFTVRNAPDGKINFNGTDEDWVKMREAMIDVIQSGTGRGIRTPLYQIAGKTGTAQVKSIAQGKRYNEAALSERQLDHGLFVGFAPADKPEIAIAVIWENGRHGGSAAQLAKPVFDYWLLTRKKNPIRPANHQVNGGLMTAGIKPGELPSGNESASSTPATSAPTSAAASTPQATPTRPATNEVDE
Put plainly: Bocillin-FL fluorescence polarization competition binding assay, A. baumannii PBP2.
From the text: as §2
To determine the ability of boronic acid-based test PBP inhibitors to bind Penicillin Binding Proteins (PBPs), Bocillin-FL (fluorescently-labeled penicillin V; ThermoFisher Scientific) was used in a fluorescence polarization (FP) competition binding assay to assess inhibitor binding to PBP2, PBP3 or PBP4 from Escherichia coli (K12), PBP3 from Pseudomonas aeruginosa (PA01), PBP1a, PBP2 and PBP3 from Acinetobacter baumannii (ATCC 19606), and PBP2 from Neiserria gonorrheae (FA19). PBPs were cloned and purified as described previously (E. coli PBPs, King, D. T, et al., ACS Infectious Diseases 2015, 1, 175-184; P. aeruginosa PBP3, Han et. al., PNAS 2010, 107 (51), 22002-22007; A. baumannii PBPs, Penwell et. al., Antimicrob. Agents Chemother. 2015, 59 (3), 1680-1689; N. gonorrhoeae PBP2, Singh et. al., J Biol. Chem. 2019, 294 (38), 14020-14032). To establish assay conditions for competition binding, enzyme titration/saturation binding experiments were initially performed. Bocillin-FL was prepared at 0.2 μM in a buffer comprised of 50 mM Hepes (pH 8.0), 300 mM NaCl and 5% (v/v) glycerol for reactions with E. coli, P. aeruginosa and N. gonorrhoeae PBPs, and 25 mM Tris (pH 8.0), 200 mM NaCl and 10% (v/v) glycerol and 0.005% (v/v) Tween 20 for reactions with A. baumannii PBPs. Saturation binding was performed by mixing 40 μl of PBP solutions ranging in concentrations from 0-24 μM with 40 μl of the 0.2 μM Bocillin-FL solution, in individual wells of a black 384-well microplate. FP was measured immediately upon mixing (Excitation, 490 nm; Emission, 520 nm; g-factor, 0.96), using a Cytation3 (BioTek) microplate reader and measured continuously for up to 120 minutes. […] The competition binding assay (80 μl final volume) was validated using beta-lactams and PBPs at final concentrations of: 1.5 μM, E. coli PBP3; 0.75 μM, P. aeruginosa PBP3; 1 μM A. baumannii PBP1a; 2.5 μM A. baumannii PBP2; 0.2 μM A. baumannii PBP3; and […] N. gonorrhoeae PBP2. Bocillin-FL was at 0.1 μM (0.05 μM with A. baumannii PBP1a) and beta-lactam concentrations ranged from 0-1000 μM. […] Bocillin-FL was added and the FP immediately measured for up to 60 minutes (90 minutes for E. coli PBP2). […] The beta-lactam potency was reported as the concentration of beta-lactam required to reduce the amount of PBP bound-Bocillin-FL by 50% (EC50). […] Binding assays for boronic acid PBP inhibitors were performed in an identical fashion for the respective PBPs
(In general: Polarisation of emitted light reports the rotation of a fluorescent probe.)

T1 sequence (P0AD68 1-577): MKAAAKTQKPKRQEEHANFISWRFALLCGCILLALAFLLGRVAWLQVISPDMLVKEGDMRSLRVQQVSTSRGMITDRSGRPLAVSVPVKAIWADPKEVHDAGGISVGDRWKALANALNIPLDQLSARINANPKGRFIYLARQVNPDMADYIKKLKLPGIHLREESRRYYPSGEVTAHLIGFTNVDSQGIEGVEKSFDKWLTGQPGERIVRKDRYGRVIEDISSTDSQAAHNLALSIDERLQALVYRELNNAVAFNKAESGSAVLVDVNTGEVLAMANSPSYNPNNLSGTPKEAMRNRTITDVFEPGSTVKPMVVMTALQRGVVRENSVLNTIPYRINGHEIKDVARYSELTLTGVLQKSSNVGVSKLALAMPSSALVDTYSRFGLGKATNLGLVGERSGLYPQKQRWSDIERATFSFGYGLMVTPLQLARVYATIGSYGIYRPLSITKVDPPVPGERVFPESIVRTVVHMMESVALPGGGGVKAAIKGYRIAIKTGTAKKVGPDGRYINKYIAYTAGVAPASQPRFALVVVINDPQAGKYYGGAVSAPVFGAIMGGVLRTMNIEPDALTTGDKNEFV

The EC50 is the concentration giving half of the maximal effect. For `CCN1CCN(C(=O)NC(C(=O)N[C@H]2Cc3ccc(SCCN4CCCC4)c(C(=O)O)c3OB2O)c2csc(N)n2)C(=O)C1=O` (stereo partly drawn) [Example 64, (3R)-3-(2-(2-aminothiazol-4-yl)-2-(4-ethyl-2,3-dioxopiperazine-1-carboxamido)acetamido)-2-hydroxy-7-((2-(pyrrolidin-1-yl)ethyl)thio)-3,4-dihydro-2H-benzo[e][1,2]oxaborinine-8-carboxylic acid], the EC50 in [1] was greater than 500 µM. Further, the “P. aeruginosa PBP3 Potency” value in test [2] was “B (B represents a potency between 30 μM and 500 μM inclusive)”. Further, the MIC in test [3] is greater than 128 µg/mL; in [4], 32 to 64 µg/mL (≈ 48.5 to 97 µM); in test [5] it was greater than 128 µg/mL; in test [6], greater than 128 µg/mL; in test [7], greater than 128 µg/mL; in test [8], greater than 128 µg/mL. The MIC is greater than 128 µg/mL in test [9]; greater than 128 µg/mL in [10]; greater than 128 µg/mL in test [11]; greater than 128 µg/mL in test [12]; 8 to 16 µg/mL (≈ 12.1 to 24.3 µM) in [13]; greater than 128 µg/mL in test [14].
As for `CC1(C)S[C@@H]2[C@H](/N=C/N3CCCCCC3)C(=O)N2[C@H]1C(=O)O` [mecillinam, reference compound], the EC50 in [15] was 2.1 µM; in test [16], 0.4 µM.
